Literature values in patent publication US8715625B1, “Natural oral care compositions” (The Clorox Company, priority 2010, dated 2014).

Tested on: plaque
Settings: two tests conducted by Purdue University's Dental Science Research Group

C=C1C[C@@]23CC[C@H]4[C@@](C)(CCC[C@@]4(C)C(=O)O[C@@H]4O[C@H](CO)[C@@H](O)[C@H](O)[C@H]4O)[C@@H]2CC[C@]1(O[C@@H]1O[C@H](CO)[C@@H](O)[C@H](O)[C@H]1O[C@@H]1O[C@H](CO)[C@@H](O)[C@H](O)[C@H]1O)C3 [Stevioside]
development of plaque: “significantly” inhibits the development of plaque
